According to patent publication US9914730B2, “Azaquinazoline inhibitors of Atypical protein Kinase C” (Ignyta, Inc., priority 2012, dated 2018):
pIC50: −log10 of the molar value.

Each compound was assayed against T1, full-length human PKCι (Homo sapiens, UniProt P41743) (assay: PKCι IC50 IMAP assay, full-length PKCι at 150 μM ATP). Details: read-out: IC50 in IMAP assay against full length PKCi at 150 μM ATP.
T1 construct: Recombinant, full-length human PKCι expressed in Sf21 insect cells is also commercially available; purchased; host or cells: Sf21 insect cells
T1 sequence (P41743 1-596): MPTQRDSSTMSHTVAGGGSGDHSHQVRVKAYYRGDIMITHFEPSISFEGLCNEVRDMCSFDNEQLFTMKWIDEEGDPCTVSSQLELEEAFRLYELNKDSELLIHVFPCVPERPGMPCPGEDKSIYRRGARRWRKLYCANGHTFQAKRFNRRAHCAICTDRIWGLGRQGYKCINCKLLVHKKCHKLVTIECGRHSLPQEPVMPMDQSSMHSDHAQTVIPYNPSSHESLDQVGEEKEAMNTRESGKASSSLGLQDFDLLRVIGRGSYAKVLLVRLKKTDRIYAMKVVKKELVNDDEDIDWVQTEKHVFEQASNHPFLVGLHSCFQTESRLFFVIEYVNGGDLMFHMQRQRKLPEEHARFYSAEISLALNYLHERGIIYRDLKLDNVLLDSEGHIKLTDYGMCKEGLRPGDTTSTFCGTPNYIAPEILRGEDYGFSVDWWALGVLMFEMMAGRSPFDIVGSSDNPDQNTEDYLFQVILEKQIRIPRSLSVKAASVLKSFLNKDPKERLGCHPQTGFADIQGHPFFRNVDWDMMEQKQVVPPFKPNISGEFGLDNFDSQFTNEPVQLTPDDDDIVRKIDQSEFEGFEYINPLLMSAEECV
Type: biochemical
In short: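 Dose-response IC50 values come from IMAP fluorescence polarisation after 60 min room-temperature turnover of 100 nM FAM peptide by ~15 pM insect-cell-expressed full-length PKCι at 150 μM ATP (5× KM^APP), normalised to no-compound and no-enzyme controls.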

`COc1cncc2nc(-c3ccnc(Nc4cc(C(N)=O)ccn4)c3)nc(N3CCNCC3)c12` [Example 379, 2-[4-(5-Methoxy-4-piperazin-1-yl-pyrido[3,4-d]pyrimidin-2-yl)-pyridin-2-ylamino]-isonicotinamide] and `COc1cncc2nc(-c3ccnc(Nc4ccc(C(N)=O)cn4)c3)nc(N3CCNCC3)c12` [Example 380, 6-[4-(5-Methoxy-4-piperazin-1-yl-pyrido[3,4-d]pyrimidin-2-yl)-pyridin-2-ylamino]-nicotinamide] cannot be ordered by pIC50: greater than 7.00 for the first, greater than 7.00 for the second.

`COc1cc(Nc2cc(-c3nc(N4CCNCC4)c4c(OC)cncc4n3)ccn2)ccc1N1CCOCC1` [Example 382, (3-Methoxy-4-morpholin-4-yl-phenyl)-[4-(5-methoxy-4-piperazin-1-yl-pyrido[3,4-d]pyrimidin-2-yl)-pyridin-2-yl]-amine] and `COc1cncc2nc(-c3ccnc(Nc4ccc(N5CCOCC5)cc4C)c3)nc(N3CCNCC3)c12` [Example 383, [4-(5-Methoxy-4-piperazin-1-yl-pyrido[3,4-d]pyrimidin-2-yl)-pyridin-2-yl]-(2-methyl-4-morpholin-4-yl-phenyl)-amine] cannot be ordered by pIC50: greater than 7.00 for the first, greater than 7.00 for the second.

First: COc1cncc2nc(-c3ccnc(Nc4ccc(C#N)nc4)c3)nc(N3CCNCC3)c12 [Example 384]
Second: COc1cncc2nc(-c3ccnc(Nc4ccc(C)nc4)c3)nc(N3CCNCC3)c12 [Example 393, [4-(5-Methoxy-4-piperazin-1-yl-pyrido[3,4-d]pyrimidin-2-yl)-pyridin-2-yl]-(6-methyl-pyridin-3-yl)-amine]
The pIC50 of the first is lower: 6.00 to 7.00 for the first, greater than 7.00 for the second.

`COc1cncc2nc(-c3ccnc(Nc4cncnc4)c3)nc(N[C@@H]3CCNC3)c12` [Example 385, {5-Methoxy-2-[2-(pyrimidin-5-ylamino)-pyridin-4-yl]-pyrido[3,4-d]pyrimidin-4-yl}-(R)-pyrrolidin-3-yl-amine] and `COc1cncc2nc(-c3ccnc(Nc4cncnc4)c3)nc(N3CCNCC3)c12` [Example 386, [4-(5-Methoxy-4-piperazin-1-yl-pyrido[3,4-d]pyrimidin-2-yl)-pyridin-2-yl]-pyrimidin-5-yl-amine] fall in the same range of pIC50: 6.00 to 7.00 for the first, 6.00 to 7.00 for the second.

First: COc1cncc2nc(-c3ccnc(Nc4ccccn4)c3)nc(N3CCNCC3)c12 [Example 387, [4-(5-Methoxy-4-piperazin-1-yl-pyrido[3,4-d]pyrimidin-2-yl)-pyridin-2-yl]-pyridin-2-yl-amine]
Second: COc1cncc2nc(-c3ccnc(Nc4ncccc4C)c3)nc(N3CCNCC3)c12 [Example 410, [4-(5-Methoxy-4-piperazin-1-yl-pyrido[3,4-d]pyrimidin-2-yl)-pyridin-2-yl]-(3-methyl-pyridin-2-yl)-amine]
The pIC50 of the first is higher: greater than 7.00 for the first, 6.00 to 7.00 for the second.

First: COc1cncc2nc(-c3ccnc(Nc4cc(C#N)ccn4)c3)nc(N3CCOCC3)c12 [Example 388, 2-[4-(5-Methoxy-4-morpholin-4-yl-pyrido[3,4-d]pyrimidin-2-yl)-pyridin-2-ylamino]-isonicotinonitrile]
Second: COc1cncc2nc(-c3ccnc(Nc4cc(C#N)ccn4)c3)nc(N3CCN(C)CC3)c12 [Example 397, 2-{4-[5-Methoxy-4-(4-methyl-piperazin-1-yl)-pyrido[3,4-d]pyrimidin-2-yl]-pyridin-2-ylamino}-isonicotinonitrile]
The pIC50 of the first is lower: 4.40 to 5.00 for the first, 6.00 to 7.00 for the second. The second is the more potent here.

`COc1cncc2nc(-c3ccnc(NC(=O)Cc4cccc(C#N)c4)c3)nc(N3CCOCC3)c12` [Example 389, 2-(3-Cyano-phenyl)-N-[4-(5-methoxy-4-morpholin-4-yl-pyrido[3,4-d]pyrimidin-2-yl)-pyridin-2-yl]-acetamide] and `COc1cncc2nc(-c3ccnc(NC(=O)Cc4cccc(C#N)c4)c3)nc(N3CCC(O)CC3)c12` [Example 403, 2-(3-Cyano-phenyl)-N-{4-[4-(4-hydroxy-piperidin-1-yl)-5-methoxy-pyrido[3,4-d]pyrimidin-2-yl]-pyridin-2-yl}-acetamide] fall in the same range of pIC50: 6.00 to 7.00 for the first, 6.00 to 7.00 for the second.

First: COc1cc(Nc2cc(-c3nc(N4CCNCC4)c4c(OC)cncc4n3)ccn2)cc(OC)c1OC [Example 390, [4-(5-Methoxy-4-piperazin-1-yl-pyrido[3,4-d]pyrimidin-2-yl)-pyridin-2-yl]-(3,4,5-trimethoxy-phenyl)-amine]
Second: COc1ccc(Nc2cc(-c3nc(N4CCNCC4)c4c(OC)cncc4n3)ccn2)cn1 [Example 394, [4-(5-Methoxy-4-piperazin-1-yl-pyrido[3,4-d]pyrimidin-2-yl)-pyridin-2-yl]-(6-methoxy-pyridin-3-yl)-amine]
The pIC50 of the first is lower: 6.00 to 7.00 for the first, greater than 7.00 for the second.

`COc1cncc2nc(-c3ccnc(NC(=O)Cc4ccc(C(F)(F)F)cc4)c3)nc(N3CCNCC3)c12` [Example 391, N-[4-(5-Methoxy-4-piperazin-1-yl-pyrido[3,4-d]pyrimidin-2-yl)-pyridin-2-yl]-2-(4-trifluoromethyl-phenyl)-acetamide] and `COc1cncc2nc(-c3ccnc(NC(=O)Cc4ccncc4)c3)nc(N3CCNCC3)c12` [Example 400, N-[4-(5-Methoxy-4-piperazin-1-yl-pyrido[3,4-d]pyrimidin-2-yl)-pyridin-2-yl]-2-pyridin-4-yl-acetamide] cannot be ordered by pIC50: greater than 7.00 for the first, greater than 7.00 for the second.

First: COc1cncc2nc(-c3ccnc(Nc4ccc(-c5ccccc5)nc4)c3)nc(N3CCNCC3)c12 [Example 392, [4-(5-Methoxy-4-piperazin-1-yl-pyrido[3,4-d]pyrimidin-2-yl)-pyridin-2-yl]-(6-phenyl-pyridin-3-yl)-amine]
Second: COc1cncc2nc(-c3ccnc(Nc4ccc(C(F)(F)F)nc4)c3)nc(N3CCNCC3)c12 [Example 395, [4-(5-Methoxy-4-piperazin-1-yl-pyrido[3,4-d]pyrimidin-2-yl)-pyridin-2-yl]-(6-trifluoromethyl-pyridin-3-yl)-amine]
The pIC50 of the first is higher: greater than 7.00 for the first, 6.00 to 7.00 for the second.

`COc1cncc2nc(-c3ccnc(NC(=O)Cc4cccnc4)c3)nc(N[C@@H]3CCNC3)c12` [Example 396, N-{4-[5-Methoxy-4-((R)-pyrrolidin-3-ylamino)-pyrido[3,4-d]pyrimidin-2-yl]-pyridin-2-yl}-2-pyridin-3-yl-acetamide] and `COc1cncc2nc(-c3ccnc(NC(=O)Cc4cccnc4)c3)nc(N3CCNCC3)c12` [Example 399, N-[4-(5-Methoxy-4-piperazin-1-yl-pyrido[3,4-d]pyrimidin-2-yl)-pyridin-2-yl]-2-pyridin-3-yl-acetamide] cannot be ordered by pIC50: greater than 7.00 for the first, greater than 7.00 for the second.

`COc1cncc2nc(-c3ccnc(NC(=O)Cc4cccc(Cl)c4)c3)nc(N3CCN(C)CC3)c12` [Example 398, 2-(3-Chloro-phenyl)-N-{4-[5-methoxy-4-(4-methyl-piperazin-1-yl)-pyrido[3,4-d]pyrimidin-2-yl]-pyridin-2-yl}-acetamide] and `COc1cncc2nc(-c3ccnc(NC(=O)Cc4cccc(C#N)c4)c3)nc(N3CCN(C)CC3)c12` [Example 404, 2-(3-Cyano-phenyl)-N-{4-[5-methoxy-4-(4-methyl-piperazin-1-yl)-pyrido[3,4-d]pyrimidin-2-yl]-pyridin-2-yl}-acetamide] fall in the same range of pIC50: 6.00 to 7.00 for the first, 6.00 to 7.00 for the second.

`COc1ccnc(Nc2cc(-c3nc(N4CCNCC4)c4c(OC)cncc4n3)ccn2)c1` [Example 401, [4-(5-Methoxy-4-piperazin-1-yl-pyrido[3,4-d]pyrimidin-2-yl)-pyridin-2-yl]-(4-methoxy-pyridin-2-yl)-amine] and `COc1cncc2nc(-c3ccnc(Nc4ncccc4F)c3)nc(N3CCNCC3)c12` [Example 411, (3-Fluoro-pyridin-2-yl)-[4-(5-methoxy-4-piperazin-1-yl-pyrido[3,4-d]pyrimidin-2-yl)-pyridin-2-yl]-amine] cannot be ordered by pIC50: greater than 7.00 for the first, greater than 7.00 for the second.

`COc1cncc2nc(-c3ccnc(Nc4cc(C#N)ccn4)c3)nc(N3CCC(O)CC3)c12` [Example 402, 2-{4-[4-(4-Hydroxy-piperidin-1-yl)-5-methoxy-pyrido[3,4-d]pyrimidin-2-yl]-pyridin-2-ylamino}-isonicotinonitrile] and `COc1cncc2nc(-c3ccnc(NC(=O)[C@H](C)c4ccccc4)c3)nc(N3CCNCC3)c12` [Example 408, (R)-N-[4-(5-Methoxy-4-piperazin-1-yl-pyrido[3,4-d]pyrimidin-2-yl)-pyridin-2-yl]-2-phenyl-propionamide] fall in the same range of pIC50: 6.00 to 7.00 for the first, 6.00 to 7.00 for the second.

`COc1cncc2nc(-c3ccnc(NC(=O)[C@H](C)c4ccccc4)c3)nc(N[C@@H]3CCNC3)c12` [Example 406, (R)-N-{4-[5-Methoxy-4-((R)-pyrrolidin-3-ylamino)-pyrido[3,4-d]pyrimidin-2-yl]-pyridin-2-yl}-2-phenyl-propionamide] and `COc1cncc2nc(-c3ccnc(NC(=O)[C@@H](C)c4ccccc4)c3)nc(N[C@@H]3CCNC3)c12` [Example 407, (S)-N-{4-[5-Methoxy-4-((R)-pyrrolidin-3-ylamino)-pyrido[3,4-d]pyrimidin-2-yl]-pyridin-2-yl}-2-phenyl-propionamide] fall in the same range of pIC50: 6.00 to 7.00 for the first, 6.00 to 7.00 for the second.

In the case of `COc1cncc2nc(-c3ccnc(NC(=O)[C@@H](C)c4ccccc4)c3)nc(N3CCNCC3)c12` [Example 409, (S)-N-[4-(5-Methoxy-4-piperazin-1-yl-pyrido[3,4-d]pyrimidin-2-yl)-pyridin-2-yl]-2-phenyl-propionamide], the pIC50 was 6.00 to 7.00.
